Measurements from the NIST ThermoML archive (doi:10.1016/j.jct.2015.12.029).

Assay: mn = molality of the nth substance listed, in mol/kg
Conditions: 100 kPa, Liquid; for molar conductivity: Alternating current cell with electrodes; for mass density: Vibrating tube method

CCCCn1cc[n+](C)c1.F[B-](F)(F)F [1-butyl-3-methylimidazolium tetrafluoroborate] + CCCCO
Conditions	mass density [kg/m3]	molar conductivity [S·m2/mol]
283.15 K, m1 = 7.252e-05	–	0.00118
283.15 K, m1 = 0.0001049	–	0.00114
283.15 K, m1 = 0.0001948	–	0.00103
283.15 K, m1 = 0.0002951	–	0.000958
283.15 K, m1 = 0.0004065	–	0.000896
283.15 K, m1 = 0.000564	–	0.000826
283.15 K, m1 = 0.000759	–	0.000763
283.15 K, m1 = 0.0009843	–	0.000711
283.15 K, m1 = 0.001432	–	0.000635
283.15 K, m1 = 0.001963	–	0.000573
283.15 K, m1 = 0.003008	–	0.000498
283.15 K, m1 = 0.009007	817.699	–
288.15 K, m1 = 7.252e-05	–	0.00135
288.15 K, m1 = 0.0001049	–	0.0013
288.15 K, m1 = 0.0001948	–	0.00118
288.15 K, m1 = 0.0002951	–	0.00109
288.15 K, m1 = 0.0004065	–	0.00102
288.15 K, m1 = 0.000564	–	0.000939
288.15 K, m1 = 0.000759	–	0.000869
288.15 K, m1 = 0.0009843	–	0.000808
288.15 K, m1 = 0.001432	–	0.000719
288.15 K, m1 = 0.001963	–	0.000648
288.15 K, m1 = 0.003008	–	0.000562
288.15 K, m1 = 0.009007	813.937	–
293.15 K, m1 = 7.252e-05	–	0.00154
293.15 K, m1 = 0.0001049	–	0.00148
293.15 K, m1 = 0.0001948	–	0.00135
293.15 K, m1 = 0.0002951	–	0.00125
293.15 K, m1 = 0.0004065	–	0.00116
293.15 K, m1 = 0.000564	–	0.00107
293.15 K, m1 = 0.000759	–	0.000986
293.15 K, m1 = 0.0009843	–	0.000917
293.15 K, m1 = 0.001432	–	0.000816
293.15 K, m1 = 0.001963	–	0.000736
293.15 K, m1 = 0.003008	–	0.000639
293.15 K, m1 = 0.009007	810.147	–
298.15 K, m1 = 7.252e-05	–	0.00177
298.15 K, m1 = 0.0001049	–	0.00169
298.15 K, m1 = 0.0001948	–	0.00154
298.15 K, m1 = 0.0002951	–	0.00142
298.15 K, m1 = 0.0004065	–	0.00132
298.15 K, m1 = 0.000564	–	0.00121
298.15 K, m1 = 0.000759	–	0.00112
298.15 K, m1 = 0.0009843	–	0.00104
298.15 K, m1 = 0.001432	–	0.000925
298.15 K, m1 = 0.001963	–	0.000834
298.15 K, m1 = 0.003008	–	0.00072
298.15 K, m1 = 0.009007	806.337	–
303.15 K, m1 = 7.252e-05	–	0.00199
303.15 K, m1 = 0.0001049	–	0.00191
303.15 K, m1 = 0.0001948	–	0.00173
303.15 K, m1 = 0.0002951	–	0.00158
303.15 K, m1 = 0.0004065	–	0.00147
303.15 K, m1 = 0.000564	–	0.00135
303.15 K, m1 = 0.000759	–	0.00125
303.15 K, m1 = 0.0009843	–	0.00116
303.15 K, m1 = 0.001432	–	0.00103
303.15 K, m1 = 0.001963	–	0.00093
303.15 K, m1 = 0.003008	–	0.000807
303.15 K, m1 = 0.009007	802.5	–
308.15 K, m1 = 7.252e-05	–	0.00224
308.15 K, m1 = 0.0001049	–	0.00214
308.15 K, m1 = 0.0001948	–	0.00193
308.15 K, m1 = 0.0002951	–	0.00177
308.15 K, m1 = 0.0004065	–	0.00164
308.15 K, m1 = 0.000564	–	0.00151
308.15 K, m1 = 0.000759	–	0.00139
308.15 K, m1 = 0.0009843	–	0.00129
308.15 K, m1 = 0.001432	–	0.00114
308.15 K, m1 = 0.001963	–	0.00103
308.15 K, m1 = 0.003008	–	0.000896
308.15 K, m1 = 0.009007	798.633	–
313.15 K, m1 = 7.252e-05	–	0.0025
313.15 K, m1 = 0.0001049	–	0.00238
313.15 K, m1 = 0.0001948	–	0.00214
313.15 K, m1 = 0.0002951	–	0.00197
313.15 K, m1 = 0.0004065	–	0.00182
313.15 K, m1 = 0.000564	–	0.00168
313.15 K, m1 = 0.000759	–	0.00154
313.15 K, m1 = 0.0009843	–	0.00143
313.15 K, m1 = 0.001432	–	0.00126
313.15 K, m1 = 0.001963	–	0.00114
313.15 K, m1 = 0.003008	–	0.00099
313.15 K, m1 = 0.009007	794.73	–
318.15 K, m1 = 7.252e-05	–	0.00278
318.15 K, m1 = 0.0001049	–	0.00264
318.15 K, m1 = 0.0001948	–	0.00237
318.15 K, m1 = 0.0002951	–	0.00217
318.15 K, m1 = 0.0004065	–	0.00201
318.15 K, m1 = 0.000564	–	0.00184
318.15 K, m1 = 0.000759	–	0.00169
318.15 K, m1 = 0.0009843	–	0.00156
318.15 K, m1 = 0.001432	–	0.00138
318.15 K, m1 = 0.001963	–	0.00125
318.15 K, m1 = 0.003008	–	0.00108
318.15 K, m1 = 0.009007	790.785	–

CCn1cc[n+](C)c1.F[B-](F)(F)F [1-ethyl-3-methylimidazolium tetrafluoroborate] + CCCCO
Conditions	mass density [kg/m3]	molar conductivity [S·m2/mol]
283.15 K, m1 = 3.974e-05	–	0.00127
283.15 K, m1 = 6.936e-05	–	0.001204
283.15 K, m1 = 0.0001047	–	0.00115
283.15 K, m1 = 0.0001865	–	0.00106
283.15 K, m1 = 0.0002945	–	0.000977
283.15 K, m1 = 0.0004005	–	0.000913
283.15 K, m1 = 0.000688	–	0.000802
283.15 K, m1 = 0.0009724	–	0.000729
283.15 K, m1 = 0.001464	–	0.000642
283.15 K, m1 = 0.001942	–	0.000597
283.15 K, m1 = 0.002839	–	0.000519
283.15 K, m1 = 0.009397	817.716	–
288.15 K, m1 = 3.974e-05	–	0.00144
288.15 K, m1 = 6.936e-05	–	0.00138
288.15 K, m1 = 0.0001047	–	0.00132
288.15 K, m1 = 0.0001865	–	0.00121
288.15 K, m1 = 0.0002945	–	0.00111
288.15 K, m1 = 0.0004005	–	0.00104
288.15 K, m1 = 0.000688	–	0.000915
288.15 K, m1 = 0.0009724	–	0.00083
288.15 K, m1 = 0.001464	–	0.000733
288.15 K, m1 = 0.001942	–	0.000668
288.15 K, m1 = 0.002839	–	0.000592
288.15 K, m1 = 0.009397	813.954	–
293.15 K, m1 = 3.974e-05	–	0.00165
293.15 K, m1 = 6.936e-05	–	0.00158
293.15 K, m1 = 0.0001047	–	0.001505
293.15 K, m1 = 0.0001865	–	0.00138
293.15 K, m1 = 0.0002945	–	0.00127
293.15 K, m1 = 0.0004005	–	0.00119
293.15 K, m1 = 0.000688	–	0.00104
293.15 K, m1 = 0.0009724	–	0.000943
293.15 K, m1 = 0.001464	–	0.000833
293.15 K, m1 = 0.001942	–	0.000762
293.15 K, m1 = 0.002839	–	0.000671
293.15 K, m1 = 0.009397	810.164	–
298.15 K, m1 = 3.974e-05	–	0.00188
298.15 K, m1 = 6.936e-05	–	0.0018
298.15 K, m1 = 0.0001047	–	0.00172
298.15 K, m1 = 0.0001865	–	0.00157
298.15 K, m1 = 0.0002945	–	0.00144
298.15 K, m1 = 0.0004005	–	0.00134
298.15 K, m1 = 0.000688	–	0.00117
298.15 K, m1 = 0.0009724	–	0.00106
298.15 K, m1 = 0.001464	–	0.000942
298.15 K, m1 = 0.001942	–	0.000859
298.15 K, m1 = 0.002839	–	0.000759
298.15 K, m1 = 0.009397	806.357	–
303.15 K, m1 = 3.974e-05	–	0.00213
303.15 K, m1 = 6.936e-05	–	0.00203
303.15 K, m1 = 0.0001047	–	0.00193
303.15 K, m1 = 0.0001865	–	0.00177
303.15 K, m1 = 0.0002945	–	0.00162
303.15 K, m1 = 0.0004005	–	0.00151
303.15 K, m1 = 0.000688	–	0.00131
303.15 K, m1 = 0.0009724	–	0.00119
303.15 K, m1 = 0.001464	–	0.00106
303.15 K, m1 = 0.001942	–	0.000961
303.15 K, m1 = 0.002839	–	0.000848
303.15 K, m1 = 0.009397	802.519	–
308.15 K, m1 = 3.974e-05	–	0.002402
308.15 K, m1 = 6.936e-05	–	0.00228
308.15 K, m1 = 0.0001047	–	0.00217
308.15 K, m1 = 0.0001865	–	0.00198
308.15 K, m1 = 0.0002945	–	0.00181
308.15 K, m1 = 0.0004005	–	0.00169
308.15 K, m1 = 0.000688	–	0.00146
308.15 K, m1 = 0.0009724	–	0.00133
308.15 K, m1 = 0.001464	–	0.00117
308.15 K, m1 = 0.001942	–	0.00107
308.15 K, m1 = 0.002839	–	0.000941
308.15 K, m1 = 0.009397	798.653	–
313.15 K, m1 = 3.974e-05	–	0.00268
313.15 K, m1 = 6.936e-05	–	0.00255
313.15 K, m1 = 0.0001047	–	0.00242
313.15 K, m1 = 0.0001865	–	0.0022
313.15 K, m1 = 0.0002945	–	0.00201
313.15 K, m1 = 0.0004005	–	0.00187
313.15 K, m1 = 0.000688	–	0.00162
313.15 K, m1 = 0.0009724	–	0.00147
313.15 K, m1 = 0.001464	–	0.00129
313.15 K, m1 = 0.001942	–	0.00118
313.15 K, m1 = 0.002839	–	0.00103
313.15 K, m1 = 0.009397	794.75	–
318.15 K, m1 = 3.974e-05	–	0.003
318.15 K, m1 = 6.936e-05	–	0.00284
318.15 K, m1 = 0.0001047	–	0.00269
318.15 K, m1 = 0.0001865	–	0.00244
318.15 K, m1 = 0.0002945	–	0.00222
318.15 K, m1 = 0.0004005	–	0.00206
318.15 K, m1 = 0.000688	–	0.00178
318.15 K, m1 = 0.0009724	–	0.00161
318.15 K, m1 = 0.001464	–	0.00142
318.15 K, m1 = 0.001942	–	0.00129
318.15 K, m1 = 0.002839	–	0.00114
318.15 K, m1 = 0.009397	790.804	–
